Data set [1] has as its target T1, DNA topoisomerase 1 (Homo sapiens) (UniProt P11387).
T1 sequence (whole entry): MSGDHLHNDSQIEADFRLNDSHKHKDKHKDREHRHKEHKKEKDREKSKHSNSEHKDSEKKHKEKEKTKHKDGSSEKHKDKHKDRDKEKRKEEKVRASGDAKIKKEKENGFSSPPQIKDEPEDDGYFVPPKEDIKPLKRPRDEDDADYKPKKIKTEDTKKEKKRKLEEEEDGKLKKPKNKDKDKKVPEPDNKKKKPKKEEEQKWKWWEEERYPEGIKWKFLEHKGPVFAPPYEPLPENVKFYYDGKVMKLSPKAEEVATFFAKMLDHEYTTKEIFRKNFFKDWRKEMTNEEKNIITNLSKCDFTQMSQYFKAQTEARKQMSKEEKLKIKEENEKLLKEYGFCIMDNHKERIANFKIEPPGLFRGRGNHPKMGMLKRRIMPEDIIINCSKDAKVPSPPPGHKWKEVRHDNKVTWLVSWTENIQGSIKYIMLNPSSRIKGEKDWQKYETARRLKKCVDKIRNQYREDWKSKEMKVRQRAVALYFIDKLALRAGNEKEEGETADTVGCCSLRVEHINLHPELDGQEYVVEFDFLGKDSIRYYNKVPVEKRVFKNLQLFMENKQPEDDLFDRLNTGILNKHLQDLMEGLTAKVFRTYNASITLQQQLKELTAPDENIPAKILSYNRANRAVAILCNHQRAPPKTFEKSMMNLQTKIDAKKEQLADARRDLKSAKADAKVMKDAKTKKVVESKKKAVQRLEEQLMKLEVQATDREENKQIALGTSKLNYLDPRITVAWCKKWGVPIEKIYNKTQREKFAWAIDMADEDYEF
In words: Binding affinity to topoisomerase 1 assessed as concentration needed for complete DNA re-supercoiling by Topo1 assay.

Data set [2] is filed under the species Homo sapiens. In words: Binding affinity to DNA by spectrophotometric titration method.
The next data set concerns DNA. Kind of data set: Binding affinity to calf thymus DNA by ITC method. Type of data set: nucleic-acid assay. Particulars: Bos taurus. For orientation: In ITC the heat of successive injections is recorded.
For data set [3], the species on record is Homo sapiens. Kind of data set: Binding affinity to DNA assessed as thermal melting temperature.
The nature of data set [4]: Partition coefficient, log P of the compound. In kind it is physicochemical. Particulars: octanol/water.

On to `CCCC[N+](C)(CCCC)CCCN1C(=O)c2ccc3c4c(ccc(c24)C1=O)C(=O)N(CCC[N+](C)(CCCC)CCCC)C3=O`, for which the Activity in data set [1] came to 5 µM. The K was 1 10^5/M in the data set listed under Homo sapiens [2] and 5.7 10^5/M with DNA. Besides, the ΔTm (in general, the shift of the melting midpoint relative to a reference) in the data set filed under Homo sapiens [3] turned out to be 4.6 °C. Further, in data set [4], the log partition coefficient (logP) (in general, the decadic logarithm of the partition coefficient of the neutral form, usually between octanol and water) was -0.9.
In the same order, the values of `C[N+](C)(C)CCCN1C(=O)c2ccc3c4c(ccc(c24)C1=O)C(=O)N(CCC[N+](C)(C)C)C3=O` are 3 µM, 5 10^5/M, 12.2 10^5/M, 7.6 °C and -2.5.
